Measured values taken from patent US8669256B2, “Substituted thieno[2,3-b]pyrazine compounds as modulators of B-Raf kinase activity” (Merck Sharp & Dohme B.V., priority 2010, dated 2014).
Like-named read-outs stand apart in the source and are kept apart here.

Tests used:
[1] = target: T1, GST-tagged human recombinant active B-Raf (Δ1-415) (Homo sapiens, UniProt P15056); assay: B-Raf kinase activity, IMAP coupled assay (B-Raf/MEK1/ERK2, fluorescence polarization); assay type: biochemical; settings: bounds also given as pIC50 (>6, >7, >8); 60 min pre-incubation with compound, ATP 50 μM; read-out: IC50, B-Raf IMAP assay
T1 construct: GST; purchased Upstate/Millipore
T1 sequence (P15056 416-766, stated change not applied): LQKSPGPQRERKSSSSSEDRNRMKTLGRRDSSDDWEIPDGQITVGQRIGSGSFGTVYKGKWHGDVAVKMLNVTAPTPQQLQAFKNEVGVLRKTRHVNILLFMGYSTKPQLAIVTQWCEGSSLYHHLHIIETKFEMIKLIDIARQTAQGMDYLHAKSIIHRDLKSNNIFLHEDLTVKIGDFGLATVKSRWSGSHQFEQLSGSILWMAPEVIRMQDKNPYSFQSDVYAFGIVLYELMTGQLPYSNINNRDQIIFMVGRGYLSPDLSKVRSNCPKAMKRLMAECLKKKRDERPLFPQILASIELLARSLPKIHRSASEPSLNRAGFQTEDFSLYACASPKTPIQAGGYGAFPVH
Outline: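 Coupled cascade: GST-B-Raf (Δ1-415; 0.2 U/ml) pre-incubated with compound (1% DMSO) 60 min at room temperature, then unactive MEK1 (64 ng/ml), unactive ERK2 (600 ng/ml), 50 nM fluorescein-Erktide and 50 μM ATP added for 60 min at 30 °C, pH 7.2 Tris buffer. Phosphopeptide captured on IMAP beads (60 min); fluorescence polarization read.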

[2] = system: phosphorylation of ERK1/2 in A375 cells containing mutant B-Raf (V600E); assay: Phospho-ERK FACE assay in A375 (B-Raf mutated) melanoma cell line; assay type: cell-based; settings: Homo sapiens, A-375, A375 cells, 2 hours incubation, read-out: IC50, A375 melanoma phospho-ERK assay
Outline: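 A375 cells (B-Raf V600E), serum-starved overnight in 0.1% FBS, exposed to compounds for 2 hours at 37° C (1% DMSO). Fixed cells probed with anti-phospho-ERK1/2 (Thr202/Tyr204, Thr185/Tyr187) antibody overnight at 4° C, total ERK on a separate plate. HRP-secondary chemiluminescence read-out.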

[3] = between 1 μM and 100 nM (6<pIC50<7)
[4] = class given as below 100 nM (pIC50>7)
[5] = class between 10 μM and 1 μM (5<pIC50<6)

SMILES | IC50 [1] | IC50 [2, 3] | IC50 [2, 4] | IC50 [2, 5]
Cc1ccc(NC(=O)c2cccc(C(C)(C)C#N)c2)cc1NC(=O)c1sc2nccnc2c1C [Example 42, N-(5-(3-(2-cyanopropan-2-yl)benzamido)-2-methylphenyl)-7-methylthieno[2,3-b]pyrazine-6-carboxamide] | < 10 nM | 100 to 1000 nM | – | –
CCNc1cnc2cc(C(=O)Nc3cc(NC(=O)c4cccc(C(C)(C)C#N)c4)ccc3C)sc2n1 [Example 67, N-(5-(3-(2-cyanopropan-2-yl)benzamido)-2-methylphenyl)-3-(ethylamino)thieno[2,3-b]pyrazine-6-carboxamide] | < 100 nM | 100 to 1000 nM | – | –
CNc1cnc2sc(C(=O)Nc3cc(NC(=O)c4cccc(C(C)(C)C#N)c4)ccc3C)c(N)c2n1 [Example 6, 7-amino-N-(5-(3-(2-cyanopropan-2-yl)benzamido)-2-methylphenyl)-2-(methylamino)thieno[2,3-b]pyrazine-6-carboxamide] | < 10 nM | – | < 100 nM | –
Cc1ccc(NC(=O)c2cccc(C(C)(C)C#N)c2)cc1NC(=O)c1sc2ncc(NCCN(C)C)nc2c1N [Example 5, 7-amino-N-(5-(3-(2-cyanopropan-2-yl)benzamido)-2-methylphenyl)-2-(2-(dimethylamino)ethylamino)thieno[2,3-b]pyrazine-6-carboxamide] | < 10 nM | 100 to 1000 nM | – | –
Cc1cnc2cc(C(=O)Nc3cc(NC(=O)c4cccc(C(C)(C)C#N)c4)ccc3C)sc2n1 [Example 70, N-(5-(3-(2-cyanopropan-2-yl)benzamido)-2-methylphenyl)-3-methylthieno[2,3-b]pyrazine-6-carboxamide] | < 100 nM | 100 to 1000 nM | – | –
Cc1ccc(NC(=O)c2cc(F)cc(C(F)(F)F)c2)cc1NC(=O)c1cc2nccnc2s1 [Example 32, N-(5-(3-fluoro-5-(trifluoromethyl)benzamido)-2-methylphenyl)thieno[2,3-b]pyrazine-6-carboxamide] | < 100 nM | – | – | 1000 to 10000 nM
Cc1ccc(NC(=O)c2ccc(F)c(C(F)(F)F)c2)cc1NC(=O)c1cc2nccnc2s1 [Example 37, N-(5-(4-fluoro-3-(trifluoromethyl)benzamido)-2-methylphenyl)thieno[2,3-b]pyrazine-6-carboxamide] | < 100 nM | – | – | 1000 to 10000 nM
Cc1ccc(NC(=O)c2cccc(C(C)(C)C#N)c2)cc1NC(=O)c1cc2ncc(NCCN(C)C)nc2s1 [Example 61, N-(5-(3-(2-cyanopropan-2-yl)benzamido)-2-methylphenyl)-3-(2-(dimethylamino)ethylamino)thieno[2,3-b]pyrazine-6-carboxamide] | < 10 nM | 100 to 1000 nM | – | –
Cc1ccc(NC(=O)c2cccc(C(C)(C)C#N)c2)cc1NC(=O)c1cc2ncc(NCCN3CCOCC3)nc2s1 [Example 63, N-(5-(3-(2-cyanopropan-2-yl)benzamido)-2-methylphenyl)-3-(2-morpholinoethylamino)thieno[2,3-b]pyrazine-6-carboxamide] | < 10 nM | 100 to 1000 nM | – | –
Cc1ccc(NC(=O)c2cccc(C(C)(C)C#N)c2)cc1NC(=O)c1sc2nccnc2c1C#N [Example 43, 7-cyano-N-(5-(3-(2-cyanopropan-2-yl)benzamido)-2-methylphenyl)thieno[2,3-b]pyrazine-6-carboxamide] | < 10 nM | 100 to 1000 nM | – | –
Cc1ccc(NC(=O)c2cccc(C(C)(C)C#N)c2)cc1NC(=O)c1cc2nc(-c3ccncc3)cnc2s1 [Example 21, N-(5-(3-(2-cyanopropan-2-yl)benzamido)-2-methylphenyl)-2-(pyridin-4-yl)thieno[2,3-b]pyrazine-6-carboxamide] | < 100 nM | – | < 100 nM | –
Cc1ccc(NC(=O)c2cccc(C(C)(C)C#N)c2)cc1NC(=O)c1sc2ncc(Br)nc2c1N [Example 3, 7-amino-2-bromo-N-(5-(3-(2-cyanopropan-2-yl)benzamido)-2-methylphenyl)thieno[2,3-b]pyrazine-6-carboxamide] | < 100 nM | 100 to 1000 nM | – | –
Cc1ccc(NC(=O)c2cccc(C(C)(C)C#N)c2)cc1NC(=O)c1sc2ncc(-c3ccco3)nc2c1N [Example 50, 7-amino-N-(5-(3-(2-cyanopropan-2-yl)benzamido)-2-methylphenyl)-2-(furan-2-yl)thieno[2,3-b]pyrazine-6-carboxamide] | < 100 nM | – | < 100 nM | –

Further lines, results first:

IC50 [1] | IC50 [2, 3] | IC50 [2, 4] | IC50 [2, 5] | SMILES
< 10 nM | 100 to 1000 nM | – | – | Cc1ccc(NC(=O)c2cccc(C(C)(C)C#N)c2)cc1NC(=O)c1sc2ncc(N3CCN(C)CC3)nc2c1N [Example 8, 7-amino-N-(5-(3-(2-cyanopropan-2-yl)benzamido)-2-methylphenyl)-2-(4-methylpiperazin-1-yl)thieno[2,3-b]pyrazine-6-carboxamide]
< 10 nM | 100 to 1000 nM | – | – | Cc1ccc(NC(=O)c2cccc(C(C)(C)C#N)c2)cc1NC(=O)c1cc2nc(NCc3ccncc3)cnc2s1 [Example 18, N-(5-(3-(2-cyanopropan-2-yl)benzamido)-2-methylphenyl)-2-(pyridin-4-ylmethylamino)thieno[2,3-b]pyrazine-6-carboxamide]
< 10 nM | 100 to 1000 nM | – | – | Cc1ccc(NC(=O)c2cccc(C(C)(C)C#N)c2)cc1NC(=O)c1cc2nccnc2s1 [Example 27, N-(5-(3-(2-cyanopropan-2-yl)benzamido)-2-methylphenyl)thieno[2,3-b]pyrazine-6-carboxamide]
< 100 nM | – | – | 1000 to 10000 nM | CC(=O)c1cnc2sc(C(=O)Nc3cc(NC(=O)c4cccc(C(C)(C)C#N)c4)ccc3C)cc2n1 [Example 19, 2-acetyl-N-(5-(3-(2-cyanopropan-2-yl)benzamido)-2-methylphenyl)thieno[2,3-b]pyrazine-6-carboxamide]
< 100 nM | 100 to 1000 nM | – | – | Cc1ccc(NC(=O)c2cc(C(C)(C)C)n[nH]2)cc1NC(=O)c1cc2nccnc2s1 [Example 30, N-(5-(3-tert-butyl-1H-pyrazole-5-carboxamido)-2-methylphenyl)thieno[2,3-b]pyrazine-6-carboxamide]
< 100 nM | – | – | 1000 to 10000 nM | Cc1ccc(NC(=O)Nc2cccc(C(C)(C)C#N)c2)cc1NC(=O)c1cc2nccnc2s1 [Example 40, N-(5-(3-(3-(2-cyanopropan-2-yl)phenyl)ureido)-2-methylphenyl)thieno[2,3-b]pyrazine-6-carboxamide]
< 100 nM | 100 to 1000 nM | – | – | CC(C)(C#N)c1cccc(C(=O)Nc2ccc(Br)c(NC(=O)c3cc4nccnc4s3)c2)c1 [Example 51, N-(2-bromo-5-(3-(2-cyanopropan-2-yl)benzamido)phenyl)thieno[2,3-b]pyrazine-6-carboxamide]
